These are literature values, as cited in patent US20230257337A1, “METHOD FOR PRODUCING POLYGYLCEROL ESTERS OF POLYCARBOXYLIC ACIDS ESTERIFIED WITH OXOBUTANOL” (IOI Oleo GmbH, priority 2020, published 2023).

For the data set the following is noted: even if several grams are taken.

`CC(O)CC(=O)O` (stereo not shown) [3-hydroxybutyric acid]: the duration of ketosis result is reported as “about three to four”.
